Drawing on ChEMBL document CHEMBL3991601, “The target landscape of clinical kinase drugs” (Science, 2017), this text covers Kd for 18 compounds.

Test [1] addresses Dual specificity mitogen-activated protein kinase kinase 1 (Homo sapiens, UniProt Q02750).
The target of test [2] is T1, Serine/threonine-protein kinase D2 (Homo sapiens, UniProt Q9BZL6).
T1 sequence (Q9BZL6 whole entry): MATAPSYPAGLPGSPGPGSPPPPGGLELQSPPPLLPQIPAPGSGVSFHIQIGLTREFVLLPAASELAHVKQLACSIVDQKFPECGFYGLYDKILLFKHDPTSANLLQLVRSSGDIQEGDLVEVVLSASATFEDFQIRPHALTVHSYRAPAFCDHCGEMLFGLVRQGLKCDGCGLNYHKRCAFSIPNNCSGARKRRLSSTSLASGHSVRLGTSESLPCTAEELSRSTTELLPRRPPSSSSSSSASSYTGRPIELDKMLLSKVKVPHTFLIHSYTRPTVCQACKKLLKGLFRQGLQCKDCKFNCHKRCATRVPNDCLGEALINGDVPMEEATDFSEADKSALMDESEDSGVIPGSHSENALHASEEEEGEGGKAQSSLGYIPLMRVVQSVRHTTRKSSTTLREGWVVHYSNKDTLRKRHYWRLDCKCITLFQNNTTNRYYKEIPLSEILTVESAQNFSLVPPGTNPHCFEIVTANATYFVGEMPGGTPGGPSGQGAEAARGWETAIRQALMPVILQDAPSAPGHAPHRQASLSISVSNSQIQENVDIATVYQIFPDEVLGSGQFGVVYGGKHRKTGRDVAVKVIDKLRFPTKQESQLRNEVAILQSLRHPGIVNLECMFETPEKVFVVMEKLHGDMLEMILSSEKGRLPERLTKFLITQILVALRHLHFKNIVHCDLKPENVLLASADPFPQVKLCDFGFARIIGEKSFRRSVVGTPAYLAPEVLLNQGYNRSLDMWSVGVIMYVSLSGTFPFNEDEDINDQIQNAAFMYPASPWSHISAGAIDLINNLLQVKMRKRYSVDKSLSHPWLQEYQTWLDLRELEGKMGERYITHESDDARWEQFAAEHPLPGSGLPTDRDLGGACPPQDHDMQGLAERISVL

In test [3] the target is Ribosomal protein S6 kinase alpha-6 (Homo sapiens, UniProt Q9UK32).
In another test the target is Deoxycytidine kinase (Homo sapiens, UniProt P27707).
Test [4] concerns the target T2, Breakpoint cluster region protein (Homo sapiens, UniProt P11274).
T2 sequence (P11274 whole entry): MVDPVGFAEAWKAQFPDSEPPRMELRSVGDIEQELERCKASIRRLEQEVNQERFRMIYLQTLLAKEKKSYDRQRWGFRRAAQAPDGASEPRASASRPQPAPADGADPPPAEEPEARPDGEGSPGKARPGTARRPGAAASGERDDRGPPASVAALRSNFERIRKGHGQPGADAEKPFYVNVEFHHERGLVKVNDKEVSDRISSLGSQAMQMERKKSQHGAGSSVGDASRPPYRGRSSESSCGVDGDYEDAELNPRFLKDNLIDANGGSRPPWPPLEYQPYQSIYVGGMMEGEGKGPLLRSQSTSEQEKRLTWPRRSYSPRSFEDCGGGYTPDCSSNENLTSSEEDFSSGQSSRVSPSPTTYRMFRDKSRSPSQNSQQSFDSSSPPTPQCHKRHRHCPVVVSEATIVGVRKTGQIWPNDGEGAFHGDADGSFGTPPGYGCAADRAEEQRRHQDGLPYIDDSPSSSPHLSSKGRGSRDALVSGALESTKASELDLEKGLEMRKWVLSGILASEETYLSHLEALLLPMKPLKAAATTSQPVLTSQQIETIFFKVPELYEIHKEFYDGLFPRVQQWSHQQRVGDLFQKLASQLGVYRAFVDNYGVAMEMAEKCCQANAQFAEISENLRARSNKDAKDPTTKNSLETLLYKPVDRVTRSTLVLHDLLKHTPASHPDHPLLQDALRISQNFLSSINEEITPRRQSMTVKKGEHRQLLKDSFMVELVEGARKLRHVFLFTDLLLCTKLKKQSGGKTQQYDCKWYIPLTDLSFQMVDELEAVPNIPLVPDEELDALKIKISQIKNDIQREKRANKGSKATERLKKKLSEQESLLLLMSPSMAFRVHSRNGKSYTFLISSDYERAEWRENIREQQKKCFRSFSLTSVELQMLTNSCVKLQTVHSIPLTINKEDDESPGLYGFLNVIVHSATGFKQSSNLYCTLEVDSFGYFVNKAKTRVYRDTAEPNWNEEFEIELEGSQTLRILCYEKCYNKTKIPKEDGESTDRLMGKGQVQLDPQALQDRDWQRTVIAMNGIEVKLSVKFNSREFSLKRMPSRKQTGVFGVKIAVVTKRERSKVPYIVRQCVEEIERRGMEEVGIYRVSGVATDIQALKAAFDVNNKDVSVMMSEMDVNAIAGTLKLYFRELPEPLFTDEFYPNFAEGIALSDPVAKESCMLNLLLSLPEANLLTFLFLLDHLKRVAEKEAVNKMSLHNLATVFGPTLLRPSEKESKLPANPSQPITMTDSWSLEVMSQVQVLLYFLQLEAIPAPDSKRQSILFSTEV

In test [5] the target is Adenylate kinase 2, mitochondrial (Homo sapiens, UniProt P54819).
The target in test [6] is T3, Serine/threonine-protein kinase STK11 (Homo sapiens, UniProt Q15831).
T3 sequence (Q15831 whole entry): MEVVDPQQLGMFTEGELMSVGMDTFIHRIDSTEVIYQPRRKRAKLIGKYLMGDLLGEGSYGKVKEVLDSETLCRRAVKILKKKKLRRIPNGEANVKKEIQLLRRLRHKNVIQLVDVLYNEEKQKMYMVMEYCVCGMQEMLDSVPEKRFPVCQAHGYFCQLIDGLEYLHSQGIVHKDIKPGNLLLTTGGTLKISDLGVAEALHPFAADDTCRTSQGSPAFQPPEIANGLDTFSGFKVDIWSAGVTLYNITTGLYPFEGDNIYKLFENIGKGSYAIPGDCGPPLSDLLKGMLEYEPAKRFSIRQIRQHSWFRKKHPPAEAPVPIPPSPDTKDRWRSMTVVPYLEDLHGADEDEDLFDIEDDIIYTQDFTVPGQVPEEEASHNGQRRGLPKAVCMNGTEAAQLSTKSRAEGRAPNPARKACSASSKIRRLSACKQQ

One may read the Kd as the concentration at which binding is half-saturated.

Calls of active or inactive are those of the source. Bounds are passed on as bounds.
Note: in the data inactive means no Kd found up to 30 µM.

Chain of Dual specificity mitogen-activated protein kinase kinase 1 (Q02750 whole entry): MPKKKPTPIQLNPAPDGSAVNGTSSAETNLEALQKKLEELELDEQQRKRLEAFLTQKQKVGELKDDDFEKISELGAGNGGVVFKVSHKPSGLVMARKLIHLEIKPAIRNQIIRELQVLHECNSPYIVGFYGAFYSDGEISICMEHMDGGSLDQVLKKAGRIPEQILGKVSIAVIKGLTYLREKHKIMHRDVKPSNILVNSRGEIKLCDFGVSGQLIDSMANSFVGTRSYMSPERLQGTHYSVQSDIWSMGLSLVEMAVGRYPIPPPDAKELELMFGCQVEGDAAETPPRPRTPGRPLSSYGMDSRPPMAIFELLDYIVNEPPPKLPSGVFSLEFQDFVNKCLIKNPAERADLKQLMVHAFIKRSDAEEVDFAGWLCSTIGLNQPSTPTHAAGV
Chain of Deoxycytidine kinase (P27707 whole entry): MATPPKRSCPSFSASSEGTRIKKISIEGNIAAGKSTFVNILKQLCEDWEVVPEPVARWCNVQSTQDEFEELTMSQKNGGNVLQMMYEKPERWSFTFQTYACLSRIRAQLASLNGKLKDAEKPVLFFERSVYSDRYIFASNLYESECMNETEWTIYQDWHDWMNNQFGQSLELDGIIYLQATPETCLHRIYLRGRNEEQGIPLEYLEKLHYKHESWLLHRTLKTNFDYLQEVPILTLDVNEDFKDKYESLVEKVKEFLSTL
Chain of Ribosomal protein S6 kinase alpha-6 (Q9UK32 whole entry): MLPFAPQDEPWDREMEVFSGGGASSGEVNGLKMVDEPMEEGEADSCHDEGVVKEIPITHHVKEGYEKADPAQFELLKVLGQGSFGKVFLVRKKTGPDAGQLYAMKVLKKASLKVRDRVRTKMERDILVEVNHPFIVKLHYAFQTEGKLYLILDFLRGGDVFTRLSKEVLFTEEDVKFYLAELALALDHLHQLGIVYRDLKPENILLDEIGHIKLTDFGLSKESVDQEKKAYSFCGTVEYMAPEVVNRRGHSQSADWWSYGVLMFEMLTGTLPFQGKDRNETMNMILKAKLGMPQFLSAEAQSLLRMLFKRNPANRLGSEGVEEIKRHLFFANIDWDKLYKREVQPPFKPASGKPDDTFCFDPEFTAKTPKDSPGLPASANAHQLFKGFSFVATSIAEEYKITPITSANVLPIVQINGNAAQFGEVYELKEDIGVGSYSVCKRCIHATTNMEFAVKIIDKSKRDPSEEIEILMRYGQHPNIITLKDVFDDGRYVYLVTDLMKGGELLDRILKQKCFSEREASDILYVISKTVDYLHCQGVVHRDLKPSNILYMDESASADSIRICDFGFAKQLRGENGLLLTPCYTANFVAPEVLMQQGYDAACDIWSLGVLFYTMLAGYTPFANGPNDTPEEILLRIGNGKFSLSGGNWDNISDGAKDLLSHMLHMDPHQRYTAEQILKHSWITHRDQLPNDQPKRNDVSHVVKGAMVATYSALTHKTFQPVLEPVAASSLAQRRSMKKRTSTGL

Take `CCn1c(=O)c(-c2cc[nH]n2)cc2c(C)nc(N)nc21` [VOXTALISIB]: the Kd (in test [1]; in test [2]; in test [3]; on Deoxycytidine kinase; in test [4]; in test [5]) was > 30 µM (inactive) throughout.
As for `OCCn1cc(-c2cnc3nnn(Cc4ccc5ncccc5c4)c3n2)cn1` [PF-04217903], the Kd (in test [6]; in test [2]; in test [3]; on Deoxycytidine kinase; in test [4]; in test [5]) was > 30 µM (inactive) throughout.
As for `Cn1ncc(Cl)c1-c1cc(C(=O)N[C@H](CN)Cc2cccc(F)c2)sc1Cl` [AFURESERTIB], the Kd in test [6] was > 30 µM (inactive); in test [1], > 30 µM (inactive); in test [2], 3.91 µM (active); in test [3], > 30 µM (inactive); at Deoxycytidine kinase, > 30 µM (inactive); in test [5] it was > 30 µM (inactive).
As for `CCn1c(-c2nonc2N)nc2c(C#CC(C)(C)O)ncc(OC[C@H]3CCCNC3)c21` [GSK-690693], the Kd (at Deoxycytidine kinase; in test [4]; in test [5]) was > 30 µM (inactive) in each case.
With `CC(=O)Nc1cccc(-n2c(=O)n(C3CC3)c(=O)c3c(Nc4ccc(I)cc4F)n(C)c(=O)c(C)c32)c1` [TRAMETINIB], the Kd (in test [6]; in test [2]; in test [3]; at Deoxycytidine kinase; in test [4]; in test [5]) was > 30 µM (inactive) each time.
With `Cc1cc(Nc2cc(N3CCN(C)CC3)nc(/C=C/c3ccccc3)n2)n[nH]1` [ENMD-2076], the Kd (in test [1]; on Deoxycytidine kinase; in test [4]; in test [5]) was > 30 µM (inactive) each time.
`COC(=O)[C@@]1(O)C[C@H]2O[C@]1(C)n1c3ccccc3c3c4c(c5c6ccccc6n2c5c31)C(=O)NC4` [K-252A]: the Kd in test [6] is > 30 µM (inactive); in test [2] it was 0.03 µM (active); in test [3], 2.18 µM (active); at Deoxycytidine kinase, > 30 µM (inactive); in test [4] it was > 30 µM (inactive); in test [5], > 30 µM (inactive).
On to `CNS(=O)(=O)Nc1nccc(Cc2c(C)c3ccc(Oc4ncccn4)cc3oc2=O)c1F` [AVUTOMETINIB], for which the Kd (in test [6]; in test [2]; in test [3]; on Deoxycytidine kinase; in test [4]; in test [5]) was > 30 µM (inactive) throughout.
In the case of `O=C1NC(=O)/C(=C/c2ccc3nccc(-c4ccncc4)c3c2)S1` [GSK-1059615], the Kd was > 30 µM (inactive) in test [6]; 18.5 µM (active) in test [1]; > 30 µM (inactive) in test [2]; > 30 µM (inactive) in test [3]; > 30 µM (inactive) at Deoxycytidine kinase; > 30 µM (inactive) in test [4].
Regarding `Nc1nc(N)c2nc(-c3cccc(O)c3)c(-c3cccc(O)c3)nc2n1` [TG100-115], the Kd at Deoxycytidine kinase is 0.012 µM (active); in test [4] it was > 30 µM (inactive); in test [5], > 30 µM (inactive).
For `CN1CCN(c2ccc3nc(-c4c(N)c5c(F)cccc5[nH]c4=O)[nH]c3c2)CC1` [DOVITINIB], the Kd at Deoxycytidine kinase is > 30 µM (inactive); in test [4], 17.4 µM (active); in test [5] it was > 30 µM (inactive).
Consider `O=C(Nc1cccc(Cl)c1)Nc1ncc(CCNc2ncnc3ccsc23)s1` [SNS-314], for which the Kd (in test [6]; in test [3]; at Deoxycytidine kinase; in test [4]; in test [5]) was > 30 µM (inactive) each time.
With `CCc1cnn2c(NCc3ccc[n+]([O-])c3)cc(N3CCCC[C@H]3CCO)nc12` [DINACICLIB], the dissociation constant Kd in test [6] was 0.497 µM (active); in test [2], > 30 µM (inactive); in test [3], > 30 µM (inactive); at Deoxycytidine kinase, > 30 µM (inactive); in test [4], > 30 µM (inactive); in test [5], > 30 µM (inactive).
Consider `COc1cc2nccc(Oc3ccc(NC(=O)NC4CC4)c(Cl)c3)c2cc1C(N)=O` [LENVATINIB], for which the Kd in test [6] was > 30 µM (inactive); in test [2] it was > 30 µM (inactive); in test [3], > 30 µM (inactive); on Deoxycytidine kinase, > 30 µM (inactive); in test [4], 4.11 µM (active); in test [5], > 30 µM (inactive).
For the compound `C[C@@H](c1ccc2nccn2c1)n1nnc2ncc(-c3cnn(C)c3)nc21` [SAVOLITINIB], the Kd (in test [1]; in test [2]; in test [3]; on Deoxycytidine kinase; in test [4]; in test [5]) was > 30 µM (inactive) each time.
Turning to `Cc1nc(N)sc1-c1ccnc(Nc2ccc(N3CCOCC3)cc2)n1` [CYC-116], the Kd in test [6] was > 30 µM (inactive); in test [1] it was > 30 µM (inactive); in test [3] it was > 30 µM (inactive); at Deoxycytidine kinase it was > 30 µM (inactive); in test [4], 8.09 µM (active); in test [5], > 30 µM (inactive).
`CC(C)Nc1cc(-c2c[nH]c(C(=O)N[C@H](CO)c3cccc(Cl)c3)c2)c(Cl)cn1` [ULIXERTINIB]: the Kd in test [6] is > 30 µM (inactive); in test [2], 6.34 µM (active); in test [3], > 30 µM (inactive); on Deoxycytidine kinase, > 30 µM (inactive); in test [4] it was > 30 µM (inactive); in test [5], > 30 µM (inactive).
In the case of `Cc1cn(-c2cc(NC(=O)c3ccc(C)c(Nc4nccc(-c5cccnc5)n4)c3)cc(C(F)(F)F)c2)cn1` [NILOTINIB], the Kd (on Deoxycytidine kinase; in test [5]) was > 30 µM (inactive) in each case.
